From PMC4268698, “Cell type-specific delivery of short interfering RNAs by dye-functionalised theranostic nanoparticles” (Nature Communications, 2014)
“Also recorded” adds a separate entry of the source.

Legend:
[1] = In vivo pharmacokinetics of polymethine dyes (organ-specific clearance by liver and kidneys); set-up: species or system male Wistar rats; settings: i.v., rats
Experimental: Catheters were placed in the jugular vein, carotid artery, bladder and bile duct of male Wistar rats (300–400 g body weight (BW)). After i.v. administration of DY-635 (13 pmol per g BW), DY-630 (13 pmol per g BW), DY-750 (13 pmol per gBW), DY-751 (13 pmol per g BW), DY-731 (13 pmol per g BW), DY-777 (14 pmol per g BW), DY-682 (13 pmol per g BW), DY-704 (17 pmol per g BW), DY-732 (13 pmol per g BW), DY-754 (17 pmol per g BW), DY-678 (14 pmol per g BW), DY-778 (14 pmol per g BW) or 6.5 μg DY625-[NP] per g BW, bile was collected every 5 min and 200 μl arterial blood taken at defined times into heparinised tubes. DY-635 fluorescence in bile and plasma was measured in a spectrofluorometer (FluoStar Optima, BMG Labtech). Results are mean±s.e.m. of three biological replicates.

[2] = biological target: T1, NTCP (Homo sapiens, UniProt Q14973); test: DY-635 interaction with hepatic basolateral transporters, transfected HEK293 cells, radio-labelled substrate uptake; assay type: cell-based; settings: 10 μM DY-635; substrate [3H]estrone-sulfate 10 μM; transfected HEK cells
T1 construct: expressed in transfected cells; host or cells: HEK293 (pcDNA5 vector)
T1 sequence (Q14973 1-349): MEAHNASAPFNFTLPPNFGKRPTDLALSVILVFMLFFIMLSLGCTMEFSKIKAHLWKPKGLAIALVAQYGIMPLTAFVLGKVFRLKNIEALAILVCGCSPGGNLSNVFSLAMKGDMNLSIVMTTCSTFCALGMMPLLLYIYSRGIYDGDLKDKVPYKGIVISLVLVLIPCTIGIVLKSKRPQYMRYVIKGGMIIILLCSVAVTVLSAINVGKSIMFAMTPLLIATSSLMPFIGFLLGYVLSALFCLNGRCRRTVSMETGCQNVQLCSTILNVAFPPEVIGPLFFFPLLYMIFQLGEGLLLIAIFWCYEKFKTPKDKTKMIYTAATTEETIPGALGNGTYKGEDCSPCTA
Experimental: (§1) HEK293 cells were transfected with OATP1B1 (SLCO1B1, NM_006446), OATP1B3 (SLCO1B3, NM_019844), OCT1 (SLC22A1, NM_003057.2), OAT2 (SLC22A7, NM_006672), NTCP (SLC10A1, NM_003049), NaDC3 (SLC13A3, AF154121) or the empty vector (pcDNA5).Transfected HEK293 cells were seeded at 2 × 10^5 cells per well and cultured for 3 days.

[3] = biological target: T2, OATP1B1 (Homo sapiens, UniProt Q9Y6L6); test: as above; assay type: cell-based; settings: 10 μM DY-635 vs rifampicin 20 μM; substrate [3H]estrone-sulfate 30 nM; transfected HEK cells
T2 construct: expressed in transfected cells; host or cells: HEK293 (pcDNA5 vector)
T2 sequence (Q9Y6L6 1-691): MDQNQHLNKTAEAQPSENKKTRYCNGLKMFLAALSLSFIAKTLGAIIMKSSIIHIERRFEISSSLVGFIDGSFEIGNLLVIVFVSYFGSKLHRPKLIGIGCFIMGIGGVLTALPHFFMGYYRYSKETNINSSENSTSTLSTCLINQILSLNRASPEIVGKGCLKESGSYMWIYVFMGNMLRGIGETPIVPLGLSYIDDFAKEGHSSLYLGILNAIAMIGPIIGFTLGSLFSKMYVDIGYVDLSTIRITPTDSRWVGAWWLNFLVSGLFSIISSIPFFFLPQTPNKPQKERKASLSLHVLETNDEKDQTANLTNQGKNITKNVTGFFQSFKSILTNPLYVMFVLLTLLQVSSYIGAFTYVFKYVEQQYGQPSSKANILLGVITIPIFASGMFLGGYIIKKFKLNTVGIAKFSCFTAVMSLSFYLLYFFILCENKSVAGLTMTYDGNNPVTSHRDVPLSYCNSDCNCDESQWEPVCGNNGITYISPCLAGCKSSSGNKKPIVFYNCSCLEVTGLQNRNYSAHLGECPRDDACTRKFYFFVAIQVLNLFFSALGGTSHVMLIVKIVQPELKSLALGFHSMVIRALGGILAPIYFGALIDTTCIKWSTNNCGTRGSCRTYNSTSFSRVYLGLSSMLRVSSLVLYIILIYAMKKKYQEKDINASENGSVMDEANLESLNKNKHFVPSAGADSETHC
Experimental: as §1

[4] = biological target: T3, OATP1B3 (Homo sapiens, UniProt Q9NPD5); test: as above; assay type: cell-based; settings: 10 μM DY-635 vs rifampicin 20 μM; substrate [3H]sulfobromphthalein 50 nM; transfected HEK cells
T3 construct: expressed in transfected cells; host or cells: HEK293 (pcDNA5 vector)
T3 sequence (Q9NPD5 1-702): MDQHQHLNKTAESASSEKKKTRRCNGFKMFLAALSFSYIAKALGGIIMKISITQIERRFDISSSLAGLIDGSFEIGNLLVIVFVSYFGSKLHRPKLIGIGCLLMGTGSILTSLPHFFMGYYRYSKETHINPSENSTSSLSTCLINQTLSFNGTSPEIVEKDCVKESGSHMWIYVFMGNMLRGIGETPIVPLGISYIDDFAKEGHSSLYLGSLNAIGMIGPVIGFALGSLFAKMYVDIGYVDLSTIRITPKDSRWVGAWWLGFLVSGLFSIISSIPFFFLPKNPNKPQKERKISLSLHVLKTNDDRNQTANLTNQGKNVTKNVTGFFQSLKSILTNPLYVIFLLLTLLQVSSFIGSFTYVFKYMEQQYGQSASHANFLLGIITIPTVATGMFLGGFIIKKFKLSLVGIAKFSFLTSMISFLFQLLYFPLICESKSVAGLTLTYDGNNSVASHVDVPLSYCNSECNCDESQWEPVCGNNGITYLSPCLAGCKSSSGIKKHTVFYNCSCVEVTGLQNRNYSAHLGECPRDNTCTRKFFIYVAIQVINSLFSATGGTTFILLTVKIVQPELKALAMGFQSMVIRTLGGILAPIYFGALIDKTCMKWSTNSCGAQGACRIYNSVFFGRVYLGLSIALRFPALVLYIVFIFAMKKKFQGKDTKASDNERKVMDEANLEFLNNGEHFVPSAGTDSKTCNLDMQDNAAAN
Experimental: as §1

[5] = tested on: primary murine hepatocytes; test: Uptake of free DY-635 by primary hepatocytes, with and without cyclosporine A; assay type: cell-based, mouse; settings: 37 or 4 °C
Experimental: This was then diluted 1:1 (v/v) with either 400 nM DY-635 (amino-terminated) or 10 μg NP in KHB. […] Lysates were analysed on a Tecan plate reader (Tecan) (excitation: 488±09 nm, emission 530±20 nm). […] Data were normalised to cellular protein (Bradford).

[6] = tested on: liver parenchyma; test: Intravital microscopy of liver (fluorescence decay, cellular association); assay type: in vivo, male FVB/NRj mice; settings: Cy5 channel, after injection
Experimental: IVM was performed using an inverted epifluorescence microscope (AxioObserverR Z1; Zeiss) as described previously.

[7] = tested on: HepaRG and HUVEC cells; test: Microfluidic-assisted organoid, co-culture of HepaRG and HUVEC, nanoparticle uptake; assay type: cell-based, human
Experimental: HUVEC and HepaRG cells were co-cultured using a microfluidic-supported chip. […] 2.7 × 10^4 cells per cm^2 were seeded in William’s E medium supplemented with 10% foetal bovine serum, 100 U ml^−1 penicillin, 100 g ml^−1 streptomycin, 5 U ml^−1 insulin and 5 × 10^−5 M hydrocortisone-hemisuccinate and cultured for 2 weeks. For HepaRG differentiation, cells were cultured with 2% dimethylsulfoxide for two more weeks. Differentiated HepaRG cells were seeded at 4,000 cells per mm^2 at the bottom of the chip cavities beneath the membrane. 300,000 HUVEC (4,300 cells per mm^2) were seeded above the membrane and co-cultured with differentiated HepaRG cells in for 24 h before the uptake experiments. Cells were perfused with 50 μg ml^−1 NPs in Williams E medium. […] For each time point three pictures were taken and 200 region of interest (ROI) per picture were analysed.

CC(C)(C)c1cc(/C=C/C=C2/N(CCCCCC(=O)NCCN)c3ccc(S(=O)(=O)O)cc3C2(C)C)c2cc3c4c(c2[o+]1)CCCN4CCC3 [DY-635]
route of elimination (net organ-specific clearance) [1]: excreted preferentially via the bile; also recorded: preferential hepatobiliary clearance | affinity to NTCP [2]: moderate affinity | affinity to OATP1B1 compared with FDA-proposed competitor [3]: substantially exceeded that of the Food and Drug Administration (FDA) proposed ligand for drug development, rifampicin | affinity to OATP1B3 compared with FDA-proposed competitor [4]: substantially exceeded that of the Food and Drug Administration (FDA) proposed ligand for drug development, rifampicin | uptake of DY-635 by primary hepatocytes [5]: rapid, temperature sensitive | fluorescence decay over liver parenchyma [6]: exponential decay

O=C1NC(=NS(=O)(=O)c2cccc3ccccc23)S/C1=C\c1ccc(Br)cc1 [Pitstop-2]
effect on uptake of DY-635[NP](−) [7]: inhibition of NP uptake
